Assay results published in paper PMC3058535 (International Journal of Nanomedicine, 2011).

Target: integrin αvβ3 (Homo sapiens, UniProt P05106+P06756)
Assay: Competitive ELISA vs NS–RGDfK
Type: binding
Details: NS–RGDfK 0.5 OD; starting 50 μM

| Compound | competition with NS–RGDfK for binding to integrin αvβ3 |
| --- | --- |
| N=C(N)NCCC[C@@H]1NC(=O)[C@H](CCCCN)NC(=O)[C@@H](Cc2ccccc2)NC(=O)[C@H](CC(=O)O)NC(=O)CNC1=O [RGDfK, cyclo(Arg-Gly-Asp-D-Phe-Lys)] | did compete with NS–RGDfK for binding to the integrin |
| cyclo-(Arg-Ala-Asp- D-Phe-Lys) (head to tail) [RADfK] | did not have any detectable competition with NS–RGDfK |
| CC(C)(CN)CNC(=O)NCCS(=O)(=O)N[C@@H](CNC(=O)c1ccc(OCCNC2=NCCCN2)cc1)C(=O)O.Cl [IAC, 4-[2-(3,4,5,6-tetrahydropyrimidin-2-ylamino)-ethyloxy]benzoyl-2-(S)-[N-(3-aminoneopenta-1-carbamyl)]-aminoethylsulfonylamino-h-alanine hydrochloride] | did compete with NS–RGDfK for binding to the integrin |
